Read-outs that look alike come from different tables or passages of the source.
Tests used:
Type in all cases: biochemical
MDM2 [1] = target: T1, MDM2 (Homo sapiens, UniProt Q00987); assay: Plate-based E3 ligase assay, MDM2 autoubiquitination (MDM2-FLAG)
Procedure: (§1) E3 (His-APC11/APC2—“APC”) auto-ubiquitination was measured as described in U.S. patent application Ser. No. 09/826,312 (Publication No. US-2002-0042083-A1), which is incorporated herein in its entirety. Details of the protocol are described below. Activity in the presence of the compound was determined relative to a parallel control in which only DMSO was added. Values of the IC50 were typically determined using 6 or 8 different concentrations of the compound, although as few as 2 concentrations may be used to approximate the IC50 value.
(§2) Nickel-coated 96-well plates (Pierce 15242) were blocked for 1 hour with 100 μl of blocking buffer at room temperature. The plates were washed 4 times with 225 μl of 1×PBS and 80 μl of the reaction buffer were added that contained 100 ng/well of Flag-ubiquitin. To this, 10 μl of the test compound diluted in DMSO were added. After the test compound was added, 10 μl of E1 (human), E2 (Ubch5c), and APC in Protein Buffer was added to obtain a final concentration of 5 ng/well of E1, 20 ng/well: of E2 and 100 ng/well of APC. The plate were shaken for 10 minutes and incubated at room temperature for 1 hour. After incubation, the plates were washed 4 times with 225 μl of 1×PBS and 100 μl/well of Antibody Mix were added to each well. The plates were incubate at room temperature for another hour after which they were washed 4 times with 225 μl of 1×PBS and 100 μl/well of Lumino substrate were added to each well. The luminescence was measured by using a BMG luminescence microplate reader.
In similar manner, autoubiquitination of the E3 MDM2 was determined (MDM2-FLAG). Further instruction in such assays can be found in U.S. patent application Ser. No. 10/108,767 (Publication No. US-2003-0104474 A1), which is incorporated herein in its entirety.
(§3) hMDM2 Plate/Gel is Mouse double minute 2, human homolog. This protein belongs to the E3 RING finger ligase group.

[2] = target: E3 (His-APC11/APC2, "APC") (Homo sapiens, UniProt Q9NYG5+Q9UJX6); assay: Plate-based E3 ligase assay (APC FLAG), auto-ubiquitination
Sequence of E3 (His-APC11/APC2, "APC") (Q9NYG5 whole entry): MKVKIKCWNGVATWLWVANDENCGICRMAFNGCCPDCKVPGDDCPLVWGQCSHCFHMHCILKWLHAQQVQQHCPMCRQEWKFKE
Sequence of E3 (His-APC11/APC2, "APC") (Q9UJX6 whole entry): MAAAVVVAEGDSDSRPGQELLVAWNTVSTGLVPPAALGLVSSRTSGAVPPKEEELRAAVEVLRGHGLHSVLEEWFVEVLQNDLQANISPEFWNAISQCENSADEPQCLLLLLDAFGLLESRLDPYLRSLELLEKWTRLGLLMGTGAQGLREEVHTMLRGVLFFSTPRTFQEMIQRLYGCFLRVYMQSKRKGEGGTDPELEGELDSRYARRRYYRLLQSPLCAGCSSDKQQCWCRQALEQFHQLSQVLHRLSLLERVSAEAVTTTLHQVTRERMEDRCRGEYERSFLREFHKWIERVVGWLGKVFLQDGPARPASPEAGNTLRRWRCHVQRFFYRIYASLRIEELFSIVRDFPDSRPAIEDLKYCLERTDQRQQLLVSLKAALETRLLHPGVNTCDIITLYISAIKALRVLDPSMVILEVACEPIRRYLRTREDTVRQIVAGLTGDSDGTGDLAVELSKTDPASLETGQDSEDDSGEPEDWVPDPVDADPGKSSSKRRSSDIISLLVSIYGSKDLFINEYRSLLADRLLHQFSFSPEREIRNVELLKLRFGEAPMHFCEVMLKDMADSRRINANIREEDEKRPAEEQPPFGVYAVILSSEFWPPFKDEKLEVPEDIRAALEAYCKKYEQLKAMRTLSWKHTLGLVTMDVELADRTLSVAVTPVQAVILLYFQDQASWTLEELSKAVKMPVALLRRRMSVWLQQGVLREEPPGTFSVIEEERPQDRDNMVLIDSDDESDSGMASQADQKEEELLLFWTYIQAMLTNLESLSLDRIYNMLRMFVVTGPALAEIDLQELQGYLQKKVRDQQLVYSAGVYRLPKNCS
Procedure: as §1, §2
APC Plate/gel is Anaphase Promoting Complex. This protein also belongs to E3 RING finger ligase group.

MDM2 [3] = target: T1, MDM2; assay: MDM2 gel-based E3 ligase assay; conditions: compound at 20 μM; result in words
Procedure: E3 (His-APC11/APC2—“APC”) auto-ubiquitination was measured as described in U.S. patent application Ser. No. 09/826,312 (Publication No. US-2002-0042083-A1), which is incorporated herein in its entirety. Details of the protocol are described below. Activity in the presence of compound was determined relative to a parallel control in which only DMSO is added. The IC50 values were typically determined using 6 or 8 different concentrations of compound, although as few as 2 concentrations may be used to approximate the IC50 values.
(§4) Corning 96-well plates (Corning 3650) were blocked with 100 μl of Blocking Buffer for 1 hour at room temperature. The plates were washed 4 times with 225 μl of 1×PBS and 80 μl of the reaction buffer were added that contained 100 ng/well of Flag-ubiquitin. To this, 10 μl of the test compound diluted in DMSO were added. After the test compound was added, 10 μl of E1 (human), E2 (Ubch5c) and APC in Protein Buffer were added to obtain a final concentration of 5 ng/well of E1, 20 ng/well of E2 and 100 ng/well APC. The plates were shaken for 10 minutes and incubated at room temperature for 1 hour. After incubation, the reaction was stopped by adding 25 μl of loading buffer (non-reducing) per well and the plates were heated at 95° C. for 5 minutes. An aliquot of each well was run on a 10% NugePage Gel and analyzed by Western Blot using the antibody mix and Lumino substrate described below. The luminescence was measured by using a BMG luminescence microplate reader.
as §3

E2 (Ubch5c) = E2 (Ubch5c) (Homo sapiens, UniProt P61077); assay: E2 ligase assay, E2 auto-ubiquitination; conditions: Table 2
Sequence of E2 (Ubch5c) (P61077 whole entry): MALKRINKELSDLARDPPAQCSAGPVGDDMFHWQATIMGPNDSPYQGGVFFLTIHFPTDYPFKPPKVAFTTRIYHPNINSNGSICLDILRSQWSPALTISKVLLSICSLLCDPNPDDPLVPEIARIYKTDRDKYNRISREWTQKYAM
Procedure: E2 (Ubch5c) auto-ubiquitination was measured as described in U.S. patent application Ser. No. 09/826,312 (Publication No. US-2002-0042083-A1), which is incorporated herein in its entirety. Details of the protocol are described below. Activity in the presence of the test compound was determined relative to a parallel control in which only DMSO was added. The IC50 values were typically determined using 6 or 8 different concentrations of compound, although as few as 2 concentrations may be used to approximate IC50 values.
as §4, with “washed for” for “washed”, “(human) and” for “(human),”, “(Ubch5c)” for “(Ubch5c) and APC”, “E1 and” for “E1,”, “E2.” for “E2 and 100 ng/well APC.”, “measured” for “measured by”

[4] = Table 3, read-out: MDM2 Plate IC50
[5] = Table 3, read-out: APC Plate IC50

T1 sequence (Q00987 whole entry): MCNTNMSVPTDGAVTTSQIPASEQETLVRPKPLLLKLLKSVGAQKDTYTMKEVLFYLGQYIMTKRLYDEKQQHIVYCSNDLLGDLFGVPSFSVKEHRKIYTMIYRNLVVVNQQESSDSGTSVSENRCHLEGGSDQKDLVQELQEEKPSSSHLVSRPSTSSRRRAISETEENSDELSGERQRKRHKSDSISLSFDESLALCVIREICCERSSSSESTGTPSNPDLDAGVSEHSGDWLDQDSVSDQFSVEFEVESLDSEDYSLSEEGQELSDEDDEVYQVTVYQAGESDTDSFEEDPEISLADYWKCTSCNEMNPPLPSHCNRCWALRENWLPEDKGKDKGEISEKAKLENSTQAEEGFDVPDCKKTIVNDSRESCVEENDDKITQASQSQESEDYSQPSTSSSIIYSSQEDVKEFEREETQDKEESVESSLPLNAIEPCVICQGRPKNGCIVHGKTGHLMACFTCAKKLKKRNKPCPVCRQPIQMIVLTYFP

| IC50 (MDM2 [1]; Table 2, read-out: MDM2 IC50) [µM] | IC50 (MDM2 [1]; [4]) [µM] | IC50 ([2]; Table 2, read-out: APC IC50) [µM] | IC50 [2, 5] [µM] | MDM2 Gel 20 μM (MDM2 [3]) | IC50 (E2 (Ubch5c)) [µM] | Structure (SMILES) |
| --- | --- | --- | --- | --- | --- | --- |
| 1 to 20 | 1 to 20 | 1 to 20 | 1 to 20 | Weak | – | O=C(c1ccc(CN(Cc2cccc(OC(F)(F)F)c2)c2nc(-c3ccccc3)cs2)cc1)N1CCNCC1 [compound 275] |
| 1 to 20 | 1 to 20 | 1 to 20 | 1 to 20 | Potent | – | O=C(c1ccc(CN(Cc2cccc(OC(F)(F)F)c2)c2nc(-c3ccc4ccccc4c3)cs2)cc1)N1CCNCC1 [compound 282, 4-(2-naphthyl)-N-[4-(piperazin-1-ylcarbonyl)benzyl]-N-[3-(trifluoromethoxy)benzyl]-1,3-thiazol-2-amine] |
| 1 to 20 | 1 to 20 | 1 to 20 | 1 to 20 | Active | ≥ 20 | COc1cccc(-c2csc(N(Cc3ccc(C(=O)N4CCNCC4)cc3)Cc3cccc(OC(F)(F)F)c3)n2)c1 [compound 351] |
| 1 to 20 | 1 to 20 | 1 to 20 | ≥ 20 | Weak | ≥ 20 | COc1cccc(-c2csc(N(CCOc3ccccc3)Cc3ccc(C(=O)N4CCNCC4)cc3)n2)c1 [compound 352] |
| 1 to 20 | 1 to 20 | 1 to 20 | 1 to 20 | Active | ≥ 20 | COc1cccc(CN(Cc2ccc(C(=O)N3CCNCC3)cc2)c2nc(-c3ccc(Br)cc3)cs2)c1OC [compound 353] |
| 1 to 20 | < 1 | 1 to 20 | 1 to 20 | Potent | ≥ 20 | O=C(c1ccc(CN(CCOc2ccccc2)c2nc(-c3ccc(Cl)c(Cl)c3)cs2)cc1)N1CCNCC1 [compound 360] |

— patent publication US20060160869A1, “Ubiquitin ligase inhibitors” (Rigel Pharmaceuticals, Inc., priority 2005, published 2006)
